# “And” between values parts separate entries of the source, which are not always exact repeats. Identical values can stand only once. Inconclusive results and toxic doses are left out.
# Tested on: nude mice, LOX melanoma ip, survival T/C
# Test: NCI In Vivo Anticancer Drug Screen. Data for tumor model Human Amelanotic Melanoma (LOX) (intraperitoneal) in NU/NU BALB/C (nude) mice
# Settings: endpoint: median survival time, higher = longer survival
# Experimental: The antitumor activity of compounds was measured in mice bearing transplantable tumors. Survival or tumor size were measured and the results are expressed as the measurement made in the treated group (T) divided by the measurement made in the vehicle treated control group (C). The tumor model used in this assay is Human Amelanotic Melanoma (LOX) (intraperitoneal) in NU/NU BALB/C (nude) mice
# [1] = dose: 15.0 mg/kg/injection, schedule: Q04DX003 (ip), vehicle: saline with Tween-80
# [2] = dose: 30.0 mg/kg/injection, schedule: Q04DX003 (ip), vehicle: saline with Tween-80
# [3] = dose: 120.0 mg/kg/injection, schedule: Q04DX003 (ip), vehicle: saline with Tween-80
# [4] = dose: 30.0 mg/kg/injection, schedule: Q04DX003 (ip), vehicle: saline
structure (smiles),measurement,setting,value
O=C1c2cccc(NCCCNCCO)c2C(=O)c2cccc(NCCCNCCO)c21,T/C,"dose: 4.69 mg/kg/injection, schedule: Q04DX003 (ip), vehicle: saline",116 % of control
same,T/C,"dose: 6.75 mg/kg/injection, schedule: Q04DX003 (ip), vehicle: acid diluted with saline",113 % of control and 97 % of control
same,T/C,"dose: 9.38 mg/kg/injection, schedule: Q04DX003 (ip), vehicle: saline",124 % of control
same,T/C,"dose: 11.0 mg/kg/injection, schedule: Q04DX003 (ip), vehicle: acid diluted with saline",117 % of control
same,T/C,"dose: 11.25 mg/kg/injection, schedule: Q04DX003 (ip), vehicle: acid diluted with saline",97 % of control
same,T/C,"dose: 18.7 mg/kg/injection, schedule: Q04DX003 (ip), vehicle: acid diluted with saline",111 % of control
same,T/C,"dose: 18.75 mg/kg/injection, schedule: Q04DX003 (ip), vehicle: acid diluted with saline",106 % of control
same,T/C,"dose: 31.25 mg/kg/injection, schedule: Q04DX003 (ip), vehicle: acid diluted with saline",112 % of control
same,T/C,"dose: 37.5 mg/kg/injection, schedule: Q04DX003 (ip), vehicle: saline",105 % of control
same,T/C,"dose: 75.0 mg/kg/injection, schedule: Q04DX003 (ip), vehicle: saline",86 % of control
COc1ccc(N=N/N=c2\sc3cc(OC)ccc3n2C)cc1,T/C,[1],121 % of control
same,T/C,[2],117 % of control
same,T/C,[3],121 % of control
COc1ccc(OC)c(Cc2cnc3nc(N)nc(N)c3c2C)c1,T/C,"dose: 7.5 mg/kg/injection, schedule: Q04DX003 (ip), vehicle: water",99 % of control
same,T/C,"dose: 15.0 mg/kg/injection, schedule: Q04DX003 (ip), vehicle: water",105 % of control
same,T/C,"dose: 30.0 mg/kg/injection, schedule: Q04DX003 (ip), vehicle: water",101 % of control
same,T/C,"dose: 37.5 mg/kg/injection, schedule: Q04DX003 (ip), vehicle: water",91 % of control
same,T/C,"dose: 60.0 mg/kg/injection, schedule: Q04DX003 (ip), vehicle: water",107 % of control
same,T/C,"dose: 75.0 mg/kg/injection, schedule: Q04DX003 (ip), vehicle: water",88 % of control
N#Cc1c(-c2ccc(F)cc2)c(-c2ccc(F)cc2)nn(CCO)c1=O,T/C,"dose: 12.5 mg/kg/injection, schedule: Q04DX003 (ip), vehicle: distilled water + Tween-80",98 % of control
same,T/C,"dose: 25.0 mg/kg/injection, schedule: Q04DX003 (ip), vehicle: distilled water + Tween-80",111 % of control
same,T/C,"dose: 50.0 mg/kg/injection, schedule: Q04DX003 (ip), vehicle: distilled water + Tween-80",115 % of control
same,T/C,"dose: 72.0 mg/kg/injection, schedule: Q04DX003 (ip), vehicle: distilled water + Tween-80",110 % of control
same,T/C,"dose: 100.0 mg/kg/injection, schedule: Q04DX003 (ip), vehicle: distilled water + Tween-80",122 % of control
same,T/C,"dose: 120.0 mg/kg/injection, schedule: Q04DX003 (ip), vehicle: distilled water + Tween-80",124 % of control
same,T/C,"dose: 200.0 mg/kg/injection, schedule: Q04DX003 (ip), vehicle: distilled water + Tween-80",120 % of control
same,T/C,"dose: 333.33 mg/kg/injection, schedule: Q04DX003 (ip), vehicle: distilled water + Tween-80",166 % of control
same,T/C,"dose: 555.55 mg/kg/injection, schedule: Q04DX003 (ip), vehicle: distilled water + Tween-80",212 % of control
C=C1c2cccc(O)c2C(O)=C2C(=O)[C@]3(O)C(O)=C(C(N)=O)C(=O)[C@@H](N(C)C)[C@@H]3[C@@H](O)[C@H]12,T/C,"dose: 37.5 mg/kg/injection, schedule: Q04DX003 (ip), vehicle: Klucel (hydroxypropylcellulose) (HPC)",94 % of control
same,T/C,"dose: 75.0 mg/kg/injection, schedule: Q04DX003 (ip), vehicle: Klucel (hydroxypropylcellulose) (HPC)",91 % of control
same,T/C,"dose: 300.0 mg/kg/injection, schedule: Q04DX003 (ip), vehicle: Klucel (hydroxypropylcellulose) (HPC)",92 % of control
N[C@@H](Cc1c[nH]c2ccccc12)C(=O)Nc1nncs1,T/C,"dose: 75.0 mg/kg/injection, schedule: Q04DX003 (ip), vehicle: suspension in saline",107 % of control
same,T/C,"dose: 150.0 mg/kg/injection, schedule: Q04DX003 (ip), vehicle: suspension in saline",94 % of control
same,T/C,"dose: 300.0 mg/kg/injection, schedule: Q04DX003 (ip), vehicle: suspension in saline",94 % of control
same,T/C,"dose: 600.0 mg/kg/injection, schedule: Q04DX003 (ip), vehicle: suspension in saline",119 % of control
N#Cc1c(N)[nH]c2ccc(Sc3ccccc3)cc12,T/C,[1],99 % of control
same,T/C,[2],89 % of control
same,T/C,"dose: 60.0 mg/kg/injection, schedule: Q04DX003 (ip), vehicle: saline with Tween-80",94 % of control
same,T/C,[3],104 % of control
same,T/C,"dose: 240.0 mg/kg/injection, schedule: Q04DX003 (ip), vehicle: saline with Tween-80",124 % of control
O=C(O)c1cc(C(=O)O)c(C(=O)O)cc1C(=O)O.[NH2-].[NH2-].[NH2-].[NH2-].[Pt+2].[Pt+2],T/C,"dose: 6.25 mg/kg/injection, schedule: Q04DX003 (ip), vehicle: water",89 % of control
same,T/C,"dose: 12.5 mg/kg/injection, schedule: Q04DX003 (ip), vehicle: water",104 % of control
same,T/C,"dose: 25.0 mg/kg/injection, schedule: Q04DX003 (ip), vehicle: water",115 % of control
same,T/C,"dose: 50.0 mg/kg/injection, schedule: Q04DX003 (ip), vehicle: water",115 % of control
O=S(=O)(O)c1cc(N=C=S)ccc1/C=C/c1ccc(N=C=S)cc1S(=O)(=O)O,T/C,"dose: 3.75 mg/kg/injection, schedule: Q04DX003 (ip), vehicle: saline",103 % of control
same,T/C,"dose: 7.5 mg/kg/injection, schedule: Q04DX003 (ip), vehicle: saline",104 % of control
same,T/C,"dose: 15.0 mg/kg/injection, schedule: Q04DX003 (ip), vehicle: saline",90 % of control
same,T/C,[4],94 % of control
CC(=O)NC(CCc1ccc(Cl)c(Cl)c1)c1cccc(O)c(=O)c1 (stereo not drawn),T/C,"dose: 86.4 mg/kg/injection, schedule: Q04DX003 (ip), vehicle: Klucel (hydroxypropylcellulose) (HPC)",98 % of control
same,T/C,"dose: 240.0 mg/kg/injection, schedule: Q04DX003 (ip), vehicle: Klucel (hydroxypropylcellulose) (HPC)",109 % of control
NCCCSc1ccccc1,T/C,"dose: 9.38 mg/kg/injection, schedule: Q01DX009 (ip), vehicle: saline",94 % of control
same,T/C,"dose: 18.75 mg/kg/injection, schedule: Q01DX009 (ip), vehicle: saline",99 % of control
same,T/C,"dose: 37.5 mg/kg/injection, schedule: Q01DX009 (ip), vehicle: saline",99 % of control
same,T/C,"dose: 75.0 mg/kg/injection, schedule: Q01DX009 (ip), vehicle: saline",94 % of control
same,T/C,"dose: 150.0 mg/kg/injection, schedule: Q01DX009 (ip), vehicle: saline",89 % of control
CC1OC(O[C@H]2/C=C/C=C/C=C/C=C/C=C/C=C/C=C/[C@H](C)[C@@H](O)[C@@H](C)[C@H](C)OC(=O)C[C@H](O)C[C@H](O)CC[C@@H](O)[C@H](O)C[C@H](O)C[C@]3(O)C[C@H](O)[C@@H](C(=O)O)[C@H](C2)O3)C(O)C(N)C1O (stereo partly drawn),T/C,"dose: 12.5 mg/kg/injection, schedule: Q04DX003 (ip), vehicle: saline + Tween-80 + alcohol",110 % of control
same,T/C,"dose: 25.0 mg/kg/injection, schedule: Q04DX003 (ip), vehicle: saline + Tween-80 + alcohol",107 % of control
CCOc1ccc(C(C)c2cc3c(cc2OC)OCO3)cc1 (stereo not drawn),T/C,"dose: 150.0 mg/kg/injection, schedule: Q04DX003 (ip), vehicle: distilled water + Tween-80",177 % of control
same,T/C,"dose: 300.0 mg/kg/injection, schedule: Q04DX003 (ip), vehicle: distilled water + Tween-80",161 % of control and 163 % of control
same,T/C,"dose: 600.0 mg/kg/injection, schedule: Q04DX003 (ip), vehicle: distilled water + Tween-80",226 % of control and 252 % of control
Nc1nc2c(C(=O)N3CCCC3)nnn2c2ccccc12,T/C,"dose: 12.5 mg/kg/injection, schedule: Q04DX003 (ip), vehicle: saline with Tween-80",96 % of control
same,T/C,"dose: 25.0 mg/kg/injection, schedule: Q04DX003 (ip), vehicle: saline with Tween-80",102 % of control
same,T/C,"dose: 50.0 mg/kg/injection, schedule: Q04DX003 (ip), vehicle: saline with Tween-80",92 % of control
C=Cc1cc(OC)c2c(c1)c(=O)oc1c2cc(OC)c2c(O)ccc(C3OC(C)C(O)C(C)(O)C3O)c21 (stereo not drawn),T/C,"dose: 600.0 mg/kg/injection, schedule: Q04DX003 (ip), vehicle: DMSO",86 % of control
CCCn1c(SC)nc(COC(=O)NC)c1COC(=O)NC,T/C,[4],104 % of control
same,T/C,"dose: 60.0 mg/kg/injection, schedule: Q04DX003 (ip), vehicle: saline",123 % of control
same,T/C,"dose: 106.8 mg/kg/injection, schedule: Q04DX003 (ip), vehicle: water",98 % of control
same,T/C,"dose: 120.0 mg/kg/injection, schedule: Q04DX003 (ip), vehicle: saline",119 % of control
same,T/C,"dose: 160.1 mg/kg/injection, schedule: Q04DX003 (ip), vehicle: water",103 % of control
same,T/C,"dose: 240.0 mg/kg/injection, schedule: Q04DX003 (ip), vehicle: saline",191 % of control
same,T/C,"dose: 240.0 mg/kg/injection, schedule: Q04DX003 (ip), vehicle: water",122 % of control
same,T/C,"dose: 359.8 mg/kg/injection, schedule: Q04DX003 (ip), vehicle: water",189 % of control
same,T/C,"dose: 480.0 mg/kg/injection, schedule: Q04DX003 (ip), vehicle: saline",170 % of control

# Reference: PubChem BioAssay AID280 (DTP/NCI, 2004)
